Data from article PMC7350133 (Heliyon, 2020).
Where two headings read alike, the source gives them in different places.

Tests used:
[1] = test system: yeast alpha glucosidase enzyme; settings: ref Gong et al., 2017, Peng et al., 2016, Rouzbehan et al.; cited from earlier work
alpha glucosidase = settings: cited from earlier work
[2] = DPPH free radical scavenging assay; settings: mean ± SD (n = 3)
[3] = ABTS free radical scavenging assay; settings: mean ± SD (n = 3)

Compound: COc1ccc([C@@H]2CC(=O)c3c(O)cc(O)cc3O2)cc1O [hesperetin]
- type of inhibition [1]: mixed type

Compound: C/C=C(\C)CC/C=C(\C)C(=O)OCC(C)(C)CC1=C(O)C(=O)c2ccccc2C1=O [rhinacanthin C]
- AGI IC50 (alpha glucosidase; ref Shah et al., 2017): 22.6 ± 0.6 µg/mL

Compound: O=C1O[C@H]([C@@H](O)CO)C(O)=C1O [Ascorbic acid]
- Antioxidant activity (IC50 in μg/mL) DPPH Assay [2]: 5.1 ± 0.1 µg/mL
- Antioxidant activity (IC50 in μg/mL) ABTS Assay [3]: 3.9 ± 0.2 µg/mL

Compound: O=c1c2cc(O)c(O)cc2oc2cc(O)cc(O)c12 [norathyriol]
- AGI IC50 (alpha glucosidase; ref Gu et al., 2019): 4.22 ± 0.19 µg/mL

Compound: O=c1c(O)c(-c2ccc(O)cc2)oc2cc(O)cc(O)c12 [kaempferol]
- type of inhibition [1]: mixed type

Compound: C[C@H]1O[C@H](O[C@H]2[C@H](O)[C@@H](O)[C@@H](O[C@H]3[C@H](O)[C@@H](O)C(O)O[C@@H]3CO)O[C@@H]2CO)[C@H](O)[C@@H](O)[C@@H]1N[C@H]1C=C(CO)[C@@H](O)[C@H](O)[C@H]1O (stereo partly shown) [Acarbose, acarbose]
- type of inhibition [1]: competitive
